Assay results published in patent publication US20210252008A1, “BIARYL COMPOSITIONS AND METHODS FOR MODULATING A KINASE CASCADE” (Athenex, Inc., priority 2004, published 2021).

Experiments:
CHK1(h) = CHK1(h) (Homo sapiens, UniProt O14757); test: Inhibition of isolated kinases; format: biochemical; settings: compound @ 10 μM
Abl(h) = Abl(h) (Homo sapiens, UniProt P00519); test: Inhibition of isolated kinases; format: biochemical; settings: compound @ 10 μM
Excerpt: (§1) Table 5 illustrates percent activity of isolated kinases in the presence of the AstraZeneca ATP-competitive inhibitor (KX-328, AZ-28) or KX2-391 relative to control (untreated) isolated kinases.

EGFR(h) = EGFR(h) (Homo sapiens, UniProt P00533); test: Inhibition of isolated kinases; format: biochemical; settings: compound @ 10 μM
Excerpt: as §1

FGFR2(h) = FGFR2(h) (Homo sapiens, UniProt P21802); test: Inhibition of isolated kinases; format: biochemical; settings: compound @ 10 μM
Excerpt: as §1

Fyn(h) = Fyn(h) (Homo sapiens, UniProt P06241); test: Inhibition of isolated kinases; format: biochemical; settings: compound @ 10 μM
Excerpt: as §1

IGF-1R(h) = IGF-1R(h) (Homo sapiens, UniProt P08069); test: Inhibition of isolated kinases; format: biochemical; settings: compound @ 10 μM
Excerpt: as §1

IR(h) = IR(h) (Homo sapiens, UniProt P06213); test: Inhibition of isolated kinases; format: biochemical; settings: compound @ 10 μM
Excerpt: as §1

Lck(h) = Lck(h) (Homo sapiens, UniProt P06239); test: Inhibition of isolated kinases; format: biochemical; settings: compound @ 10 μM
Excerpt: as §1

Lyn(h) = Lyn(h) (Homo sapiens, UniProt P07948); test: Inhibition of isolated kinases; format: biochemical; settings: compound @ 10 μM
Excerpt: as §1

MAPK2(h) = MAPK2(h) (Homo sapiens, UniProt P28482); test: Inhibition of isolated kinases; format: biochemical; settings: compound @ 10 μM
Excerpt: as §1

PDGFRβ(h) = PDGFRβ(h) (Homo sapiens, UniProt P09619); test: Inhibition of isolated kinases; format: biochemical; settings: compound @ 10 μM
Excerpt: as §1

PI3 kinase = test: Inhibition of isolated kinases; format: biochemical; settings: compound @ 10 μM
Excerpt: as §1

PKCα(h) = PKCα(h) (Homo sapiens, UniProt P17252); test: Inhibition of isolated kinases; format: biochemical; settings: compound @ 10 μM
Excerpt: as §1

Pyk2(h) = Pyk2(h) (Homo sapiens, UniProt Q14289); test: Inhibition of isolated kinases; format: biochemical; settings: compound @ 10 μM
Excerpt: as §1

Yes(h) = Yes(h) (Homo sapiens, UniProt P07947); test: Inhibition of isolated kinases; format: biochemical; settings: compound @ 10 μM
Excerpt: as §1

ZAP-70(h) = ZAP-70(h) (Homo sapiens, UniProt P43403); test: Inhibition of isolated kinases; format: biochemical; settings: compound @ 10 μM
Excerpt: as §1

FAK Tyr 925 = test: Intracellular phosphorylation levels: FAK Tyr 925; format: cell-based; settings: c-Src/NIH-3T3 and HT-29 cells; FIG. 2
Procedure: (§2) HT29 (colon cancer) and c-Src527F/NIH-3T3 (Src transformed) cell lines were treated with KX2-391 or with AstraZeneca's ATP competitive Src inhibitor AZ28. AZ28 serves as a positive comparator to show what a validated Src inhibitor should do in these assays. After treatment with compound, cells were lysed, subjected to PAGE and probed with a battery of antibodies. […] In addition, off-target protein phosphorylation was also investigated. Further, induction of apoptosis was evaluated via Caspase 3 cleavage. Multiple doses of each compound were tested because the trends in response to increasing drug concentration are the most reliable indicator of activity.
(§3) The same range of multiples of the GI50 for AZ28 in these two cell lines was run as a comparison.

She Y239/240 = test: Intracellular phosphorylation levels: She Y239/240; format: cell-based; settings: c-Src/NIH-3T3 and HT-29 cells; FIG. 3
Procedure: as §2, §3

Paxillin Y-31 = test: Intracellular phosphorylation levels: Paxillin Y-31; format: cell-based; settings: c-Src/NIH-3T3 cells; FIG. 4
Procedure: as §2, §3
Note: paxillin Y-31 was not detected in HT29 cells with or without added drug.

[1] = system: PDGF receptor tyrosine kinase Y572/574; test: PDGF receptor autophosphorylation in cells; format: cell-based; settings: c-Src/NIH-3T3 cells; FIG. 7
Procedure: as §2, §3
This is thought not to be a direct Src substrate in cells.

FAK Y397 = test: FAK autophosphorylation in cells; format: cell-based; settings: c-Src527F/NIH3T3 cells; FIG. 8
Procedure: as §2, §3
FAK Y397 is mainly a FAK autophosphorylation site and only a poor Src transphorylation site. AZ28 is […] FAK inhibitor (see isolated enzyme data in Table 5). However, no inhibition of FAK autophosphorylation in c-Src527F/NIH3T3 cells is seen with KX-391.

Sequence of Fyn(h) (P06241 whole entry): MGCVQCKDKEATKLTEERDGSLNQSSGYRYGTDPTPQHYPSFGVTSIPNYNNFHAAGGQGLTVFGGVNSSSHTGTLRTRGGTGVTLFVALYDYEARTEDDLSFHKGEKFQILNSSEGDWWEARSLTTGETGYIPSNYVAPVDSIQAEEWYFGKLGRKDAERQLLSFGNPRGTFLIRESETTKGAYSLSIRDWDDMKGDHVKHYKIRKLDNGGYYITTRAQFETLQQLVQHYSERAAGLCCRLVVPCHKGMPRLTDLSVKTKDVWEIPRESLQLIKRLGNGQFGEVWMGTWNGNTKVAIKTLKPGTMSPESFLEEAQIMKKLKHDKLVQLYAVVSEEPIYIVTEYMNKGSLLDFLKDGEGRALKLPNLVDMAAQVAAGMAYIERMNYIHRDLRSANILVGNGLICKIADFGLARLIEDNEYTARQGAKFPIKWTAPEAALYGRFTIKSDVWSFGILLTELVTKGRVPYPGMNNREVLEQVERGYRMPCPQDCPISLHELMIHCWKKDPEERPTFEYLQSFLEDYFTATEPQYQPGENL
Sequence of EGFR(h) (P00533 25-1210): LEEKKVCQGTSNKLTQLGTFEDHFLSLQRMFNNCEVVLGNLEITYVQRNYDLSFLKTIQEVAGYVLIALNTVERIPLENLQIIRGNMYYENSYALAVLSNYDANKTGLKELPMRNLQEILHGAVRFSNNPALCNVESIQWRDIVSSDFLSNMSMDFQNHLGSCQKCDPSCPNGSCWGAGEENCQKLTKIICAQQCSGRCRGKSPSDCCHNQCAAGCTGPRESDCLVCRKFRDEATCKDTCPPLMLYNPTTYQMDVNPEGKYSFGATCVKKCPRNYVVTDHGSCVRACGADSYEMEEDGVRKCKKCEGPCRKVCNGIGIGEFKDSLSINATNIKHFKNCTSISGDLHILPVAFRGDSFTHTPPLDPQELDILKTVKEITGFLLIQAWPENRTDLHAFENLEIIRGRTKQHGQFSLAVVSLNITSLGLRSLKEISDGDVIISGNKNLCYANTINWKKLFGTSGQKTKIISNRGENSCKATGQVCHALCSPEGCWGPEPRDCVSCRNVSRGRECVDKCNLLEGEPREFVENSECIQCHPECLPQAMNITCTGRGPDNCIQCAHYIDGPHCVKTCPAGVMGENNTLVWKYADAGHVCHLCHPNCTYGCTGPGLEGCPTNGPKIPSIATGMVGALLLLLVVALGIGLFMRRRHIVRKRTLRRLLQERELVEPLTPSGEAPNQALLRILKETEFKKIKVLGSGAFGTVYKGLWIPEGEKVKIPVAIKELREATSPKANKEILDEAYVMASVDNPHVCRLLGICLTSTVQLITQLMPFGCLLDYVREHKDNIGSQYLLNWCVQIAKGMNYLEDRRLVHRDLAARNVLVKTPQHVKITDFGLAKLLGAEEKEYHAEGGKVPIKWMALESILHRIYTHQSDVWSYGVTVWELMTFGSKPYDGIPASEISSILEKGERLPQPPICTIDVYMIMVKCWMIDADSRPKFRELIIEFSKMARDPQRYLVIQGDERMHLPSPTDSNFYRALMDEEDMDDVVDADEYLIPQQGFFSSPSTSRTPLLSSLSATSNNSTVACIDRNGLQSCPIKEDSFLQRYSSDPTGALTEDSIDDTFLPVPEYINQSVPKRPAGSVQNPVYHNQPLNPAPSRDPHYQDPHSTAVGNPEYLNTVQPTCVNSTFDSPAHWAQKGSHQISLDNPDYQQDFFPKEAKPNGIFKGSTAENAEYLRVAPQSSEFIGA
Sequence of FGFR2(h) (P21802 22-821): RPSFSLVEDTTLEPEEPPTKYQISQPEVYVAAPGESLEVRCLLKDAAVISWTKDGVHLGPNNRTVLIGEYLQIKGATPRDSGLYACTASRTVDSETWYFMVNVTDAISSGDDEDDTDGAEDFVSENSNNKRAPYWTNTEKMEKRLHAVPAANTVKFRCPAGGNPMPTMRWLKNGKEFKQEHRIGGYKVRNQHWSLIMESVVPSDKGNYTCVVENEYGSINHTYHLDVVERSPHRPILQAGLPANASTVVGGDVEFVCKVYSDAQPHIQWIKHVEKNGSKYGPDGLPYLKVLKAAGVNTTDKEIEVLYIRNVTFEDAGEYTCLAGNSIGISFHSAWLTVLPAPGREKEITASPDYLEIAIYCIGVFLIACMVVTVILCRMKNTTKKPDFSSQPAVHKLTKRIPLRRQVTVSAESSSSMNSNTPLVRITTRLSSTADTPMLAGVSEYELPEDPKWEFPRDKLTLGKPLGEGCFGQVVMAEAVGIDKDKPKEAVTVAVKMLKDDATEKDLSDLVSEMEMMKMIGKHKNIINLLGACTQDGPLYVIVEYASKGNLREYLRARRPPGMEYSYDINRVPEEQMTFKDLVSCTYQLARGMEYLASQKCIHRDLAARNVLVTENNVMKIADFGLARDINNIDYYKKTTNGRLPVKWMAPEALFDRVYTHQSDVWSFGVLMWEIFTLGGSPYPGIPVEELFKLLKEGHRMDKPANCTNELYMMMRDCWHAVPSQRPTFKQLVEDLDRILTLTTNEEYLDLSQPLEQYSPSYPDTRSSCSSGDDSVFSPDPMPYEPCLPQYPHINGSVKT
Sequence of Yes(h) (P07947 whole entry): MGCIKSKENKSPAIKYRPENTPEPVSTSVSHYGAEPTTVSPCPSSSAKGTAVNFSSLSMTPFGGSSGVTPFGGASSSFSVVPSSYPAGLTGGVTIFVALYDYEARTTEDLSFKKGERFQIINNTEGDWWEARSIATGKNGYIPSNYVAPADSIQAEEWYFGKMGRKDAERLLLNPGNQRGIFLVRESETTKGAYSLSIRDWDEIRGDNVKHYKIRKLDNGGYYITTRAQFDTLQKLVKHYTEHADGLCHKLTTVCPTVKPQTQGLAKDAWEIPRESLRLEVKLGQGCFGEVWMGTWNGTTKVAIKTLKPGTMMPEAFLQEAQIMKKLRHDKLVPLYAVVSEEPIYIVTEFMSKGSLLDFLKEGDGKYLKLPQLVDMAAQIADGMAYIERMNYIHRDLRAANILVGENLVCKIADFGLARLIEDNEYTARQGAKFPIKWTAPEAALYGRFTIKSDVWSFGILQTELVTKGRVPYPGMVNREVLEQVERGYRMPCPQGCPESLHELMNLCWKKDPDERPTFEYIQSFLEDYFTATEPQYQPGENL
Sequence of PDGFRβ(h) (P09619 33-1106): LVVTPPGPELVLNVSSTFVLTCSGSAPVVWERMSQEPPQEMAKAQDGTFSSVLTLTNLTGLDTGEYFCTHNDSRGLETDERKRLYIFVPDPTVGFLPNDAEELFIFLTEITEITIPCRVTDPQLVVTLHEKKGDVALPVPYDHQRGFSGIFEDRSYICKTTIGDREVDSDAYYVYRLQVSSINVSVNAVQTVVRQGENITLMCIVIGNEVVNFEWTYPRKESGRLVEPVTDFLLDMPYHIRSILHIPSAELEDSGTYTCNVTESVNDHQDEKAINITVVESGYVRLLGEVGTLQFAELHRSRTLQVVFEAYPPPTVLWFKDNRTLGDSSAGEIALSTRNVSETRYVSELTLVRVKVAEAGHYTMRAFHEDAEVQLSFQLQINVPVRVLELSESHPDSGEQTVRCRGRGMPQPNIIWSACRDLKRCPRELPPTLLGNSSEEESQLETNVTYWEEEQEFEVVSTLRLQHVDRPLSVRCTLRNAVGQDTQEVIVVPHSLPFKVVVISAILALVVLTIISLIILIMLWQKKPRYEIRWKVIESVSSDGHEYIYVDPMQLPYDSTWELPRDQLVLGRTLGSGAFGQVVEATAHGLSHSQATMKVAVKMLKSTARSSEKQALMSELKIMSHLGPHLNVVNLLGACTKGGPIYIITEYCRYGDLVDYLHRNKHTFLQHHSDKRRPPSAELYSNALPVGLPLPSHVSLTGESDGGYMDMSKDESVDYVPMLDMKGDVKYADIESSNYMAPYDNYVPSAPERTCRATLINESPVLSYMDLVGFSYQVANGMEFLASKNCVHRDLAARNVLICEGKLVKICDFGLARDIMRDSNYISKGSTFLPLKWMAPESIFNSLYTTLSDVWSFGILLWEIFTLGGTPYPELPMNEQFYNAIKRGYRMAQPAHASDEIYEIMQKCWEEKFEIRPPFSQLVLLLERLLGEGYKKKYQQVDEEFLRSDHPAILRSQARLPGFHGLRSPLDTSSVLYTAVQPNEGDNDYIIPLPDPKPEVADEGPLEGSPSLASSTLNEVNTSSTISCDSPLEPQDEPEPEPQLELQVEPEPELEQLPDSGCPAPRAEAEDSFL
Sequence of CHK1(h) (O14757 whole entry): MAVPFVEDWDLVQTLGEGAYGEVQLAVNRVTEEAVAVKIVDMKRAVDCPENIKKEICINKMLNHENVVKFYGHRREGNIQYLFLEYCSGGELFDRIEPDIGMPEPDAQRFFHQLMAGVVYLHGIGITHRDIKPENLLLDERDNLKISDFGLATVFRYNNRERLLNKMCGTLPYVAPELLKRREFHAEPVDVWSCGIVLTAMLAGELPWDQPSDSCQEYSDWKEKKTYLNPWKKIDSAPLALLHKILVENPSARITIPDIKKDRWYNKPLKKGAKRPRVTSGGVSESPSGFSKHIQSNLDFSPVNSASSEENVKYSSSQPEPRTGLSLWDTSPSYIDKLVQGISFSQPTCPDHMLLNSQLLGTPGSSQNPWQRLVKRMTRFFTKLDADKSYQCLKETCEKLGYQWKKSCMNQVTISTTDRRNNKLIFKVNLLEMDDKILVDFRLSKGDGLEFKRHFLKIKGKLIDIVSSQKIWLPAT
Sequence of MAPK2(h) (P28482 whole entry): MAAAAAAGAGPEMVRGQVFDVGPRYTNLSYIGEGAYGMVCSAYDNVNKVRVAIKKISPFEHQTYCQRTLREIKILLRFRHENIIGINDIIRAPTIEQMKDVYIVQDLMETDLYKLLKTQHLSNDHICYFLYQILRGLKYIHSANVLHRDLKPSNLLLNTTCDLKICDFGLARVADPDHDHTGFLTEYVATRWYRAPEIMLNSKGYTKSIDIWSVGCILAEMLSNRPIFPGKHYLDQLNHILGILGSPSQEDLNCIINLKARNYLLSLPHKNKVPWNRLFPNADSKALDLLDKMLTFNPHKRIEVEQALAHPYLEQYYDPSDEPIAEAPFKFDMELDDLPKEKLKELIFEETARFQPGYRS

- percent activity of isolated kinase relative to control (untreated) (CHK1(h)): 105%
- percent activity of isolated kinase relative to control (untreated) (Abl(h)): 120%
- percent activity of isolated kinase relative to control (untreated) (EGFR(h)): 134%
- percent activity of isolated kinase relative to control (untreated) (FGFR2(h)): 94%
- percent activity of isolated kinase relative to control (untreated) (Fyn(h)): 85%
- percent activity of isolated kinase relative to control (untreated) (IGF-1R(h)): 101%
- percent activity of isolated kinase relative to control (untreated) (IR(h)): 112%
- percent activity of isolated kinase relative to control (untreated) (Lck(h)): 109%
- percent activity of isolated kinase relative to control (untreated) (Lyn(h)): 113%
- percent activity of isolated kinase relative to control (untreated) (MAPK2(h)): 112%
- percent activity of isolated kinase relative to control (untreated) (PDGFRβ(h)): 110%
- percent activity of isolated kinase relative to control (untreated) (PI3 kinase): 100%
- percent activity of isolated kinase relative to control (untreated) (PKCα(h)): 111%
- percent activity of isolated kinase relative to control (untreated) (Pyk2(h)): 97%
- percent activity of isolated kinase relative to control (untreated) (Yes(h)): 92%
- percent activity of isolated kinase relative to control (untreated) (ZAP-70(h)): 108%
Compound: O=C(Cc1ccc(-c2ccc(OCCN3CCOCC3)cc2)cn1)NCc1ccccc1 [KX2-391]
- phosphorylation of FAK Tyr 925 (Src trans-phosphorylation) (FAK Tyr 925): inhibited
- phosphorylation of She Y239/240 (Src trans-phosphorylation) (She Y239/240): inhibited
- phosphorylation of Paxillin Y-31 (Src trans-phosphorylation) (Paxillin Y-31): inhibited
- PDGF receptor autophosphorylation (Y572/574) [1]: Some effect
- FAK autophosphorylation (Y397) (FAK Y397): no inhibition
